Laboratory results from patent US20230390251A1, “METHODS OF TREATING RIBONUCLEOTIDE REDUCTASE-RELATED DISEASES WITH A RIBONUCLEOTIDE REDUCTASE INHIBITOR” (TAIHO PHARMACEUTICAL CO., LTD., priority 2020, published 2023).

Tests used:
[1] = tested on: Human acute myelocytic leukemia (AML) cell line MV-4-11 cells; assay: Anti-tumor effect (relative tumor volume) in nude mice implanted with MV-4-11 cells; type: in vivo; settings: for effect of reducing tumor volume (RTV) compared to the Control Group: Day 15
Protocol: Anti-tumor Effect and body weight change in QOD Dosing Regimen Human acute myelocytic leukemia (AML) cell line MV-4-11 cells (American Type Culture Collection CRL-9591™) were implanted in the right thorax of male nude mice (CLEA Japan, Inc.). After implantation of the tumor, the major axis (mm) and minor axis (mm) of the tumor were measured, and tumor volume (TV) was calculated for each mouse. Then, the mice were assigned to the following groups, Control group (◯), Continuous Dosing Group (●: 100 mg/kg/day; ⋄: 150 mg/kg/day) and QOD Dosing Group (▴: 200 mg/kg/day; ♦: 300 mg/kg/day), so that the average TV of each group was equivalent. The day in which the grouping (n=5) was conducted was taken as Day 0.
5-chloro-2-(N-((1S,2R)-2-(6-fluoro-2,3-dimethylphenyl)-1-(5-oxo-4,5-dihydro-1,3,4-oxadiazol-2-yl)propyl)sulfamoyl)benzamide (Compound A) was suspended in 5 mg/mL hypromellose solution to provide appropriate test samples for 100 mg/kg, 150 mg/kg. 200 mg/kg, and 300 mg/kg dosing regimen. Animals of the Control group were not treated.
To mice in the Continuous Dosing Group, 100 mg/kg/day or 150 mg/kg/day of Compound A was orally administered once daily from Day 1 to Day 14. The total dosage for mice in the Continuous Dosing Group administered 100 mg/kg/day (Group C-1) was 1400 mg/kg, and the total dosage for mice in the Continuous Dosing Group administered 150 mg/kg/day (Group C-2) was 2100 mg/kg.
To mice in the QOD Dosing Group, 200 mg/kg/day or 300 mg/kg/day of Compound A was orally administered once every other day for two weeks (Days 1, 3, 5, 7, 9, 11 and 13). The total dosage for mice in the QOD Dosing Group administered 200 mg/kg/day (Group QOD-1) was 1400 mg/kg, and the total dosage for mice in the QOD Dosing Group administered 300 mg/kg/day (Group QOD-2) was 2100 mg/kg.
On Days 4, 8, 11 and 15, using the following formula: TV (mm^3)=(major axis×minor axis^2)/2, relative tumor volume (RTV) was calculated as an index of anti-tumor effect during the dosing period for each group (FIG. 1).
Similar to Example 1, anti-tumor effect and body weight change were studied in mice harboring MV-4-11 cells among the following five groups: Control group (◯), Continuous Dosing Group (●: 100 mg/kg/day; ⋄: 150 mg/kg/day) and QW Dosing Group (▪: 700 mg/kg/day; x: 1050 mg/kg/day).
To mice in the QW Dosing Group, 700 mg/kg/day or 1050 mg/kg/day of Compound A was orally administered once per week for two weeks (Days 1 and 8). The total dosage for mice in the QW Dosing Group administered 700 mg/kg/day (Group QW-1) was 1400 mg/kg, and the total dosage for mice in the QW Dosing Group administered 1050 mg/kg/day (Group QW-2) was 2100 mg/kg.
Similar to Example 1, anti-tumor effect and body weight change were studied in mice harboring MV-4-11 cells among the following five groups: Control group (◯), Continuous Dosing Group (●: 100 mg/kg/day; ⋄: 150 mg/kg/day) and 3QW Dosing Group 1 (▴: 233 mg/kg/day; ♦: 350 mg/kg/day).
To mice in the 3QW Dosing Group 1, 233 mg/kg/day or 350 mg/kg/day of Compound A was orally administered three days consecutively per week for two weeks (Days 1-3 and 8-10). The total dosage for mice in the 3QW Dosing Group 1 administered 233 mg/kg/day (Group 3QW1-1) was 1400 mg/kg, and the total dosage for mice in the 3QW Dosing Group 1 administered 350 mg/kg/day (Group 3QW1-2) was 2100 mg/kg.
Anti-tumor Effect and body weight change in 3QW Dosing Regimen 2 Similar to Example 1, anti-tumor effect and body weight change were studied in mice harboring MV-4-11 cells among the following five groups: Control group (0), Continuous Dosing Group (●: 100 mg/kg/day; ⋄: 150 mg/kg/day) and 3QW Dosing Group 2 (▴: 233 mg/kg/day; ♦: 350 mg/kg/day).
To mice in the 3QW Dosing Group 2, 233 mg/kg/day or 350 mg/kg/day of Compound A was orally administered every other day three times per week for two weeks (Days 1, 3, 5, 8, 10 and 12). […]

A673 cells = assay: Caspase-Glo 3/7 caspase induction assay in A673 cells treated with siRNA against SLFN11; type: cell-based; settings: 10 micro mol/L, 24 h; A673 cells transfected with siRNA against SLFN11
Protocol: (§1) A673 cells, NCI-H460 cells and CFPAC-1 cells were transfected with 1 nM siRNAs for 24 h using Lipofectaminet®RNAiMAX Reagent (Thermo Fisher Scientific Inc.) and then re-seeded onto a 96-well plate for cell proliferation assay and caspase induction assay and onto dishes for immunoblotting analysis. siRNAs were obtained from Thermo Fisher Scientific Inc. as follows: Silencer® Select Negative Control #1 siRNA (#4390843 used as siControl), SLFN11 Silencer® Select Pre-designed siRNA (#s40703 used as siSLFN11-1, #s40704 as siSLFN11-2, and #s40702 as siSLFN11-3).
Caspase induction assay was performed in accordance with conventional methods, available in Hasako., et al., ibid. Briefly, the cells with siRNAs for 24 h were seeded onto 96 well plate, incubated for 24 h, and then treated with Compound A for 24 h. Caspase induction was detected by using the Caspase-Glo 3/7 assay (Promega).

NCI-H460 cells = assay: Cell proliferation assay in NCI-H460 cells treated with siRNA against SLFN11; type: cell-based; settings: non-small cell lung cancer cell line NCI-H460, siSLFN11 vs siControl, 3 days of exposure
Protocol: as §1
Cell proliferation assay was performed in accordance with conventional methods, available in Hasako, et al., ibid. Briefly, cells treated with siRNAs for 24 h were plated onto 96 well plate and incubated for 24 h, followed by 3 days of exposure to the compound A. After compound exposure, viable cells were detected by using the CellTiter-Glo luminescent cell viability assay (Promega).

Structure (SMILES): Cc1ccc(F)c([C@@H](C)[C@H](NS(=O)(=O)c2ccc(Cl)cc2C(N)=O)c2n[nH]c(=O)o2)c1C [Compound A, 5-chloro-2-(N-((1S,2R)-2-(6-fluoro-2,3-dimethylphenyl)-1-(5-oxo-4,5-dihydro-1,3,4-oxadiazol-2-yl)propyl)sulfamoyl)benzamide]
- effect of reducing tumor volume, Group 3QW1-2 compared with Group C-2 ([1]; 3QW (consecutive) 350 mg/kg/day vs continuous 150 mg/kg/day, total dosage 2100 mg/kg, not statistically significant): similar
- effect of reducing tumor volume, Group 3QW2-1 compared with Group C-1 ([1]; 3QW (every other day) 233 mg/kg/day vs continuous 100 mg/kg/day, total dosage 1400 mg/kg, t-test P<0.05): higher than Group C-1
- effect of reducing tumor volume, Group 3QW2-2 compared with Group C-2 ([1]; 3QW (every other day) 350 mg/kg/day vs continuous 150 mg/kg/day, total dosage 2100 mg/kg, not statistically significant): similar
- effect of reducing tumor volume (RTV) compared to the Control Group ([1]; 3QW Dosing Group 1, 233 or 350 mg/kg/day orally Days 1-3 and 8-10): showed the effect of reducing tumor volume compared to the Control Group
- effect of reducing tumor volume (RTV) compared to the Control Group ([1]; 3QW Dosing Group 2, 233 or 350 mg/kg/day orally Days 1, 3, 5, 8, 10 and 12): showed the effect of reducing tumor volume compared to the Control Group
- effect of reducing tumor volume, Group 5QW2-2 compared with Group C-2 ([1]; 5QW (2 on/1 off/3 on/1 off) 210 mg/kg/day vs continuous 150 mg/kg/day, total dosage 2100 mg/kg, t-test p<0.05): higher than Group C-2 with a statistically significant difference
- effect of reducing tumor volume, Group 5QW1-2 compared with Group C-2 ([1]; 5QW (consecutive) 210 mg/kg/day vs continuous 150 mg/kg/day, total dosage 2100 mg/kg, not statistically significant): similar
- effect of reducing tumor volume (RTV) compared to the Control Group ([1]; 5QW Dosing Group 1, 140 or 210 mg/kg/day orally Days 1-5 and 8-12): showed the effect of reducing tumor volume compared to the Control Group
- effect of reducing tumor volume (RTV) compared to the Control Group ([1]; 5QW Dosing Group 2, 140 or 210 mg/kg/day orally Days 1-2, 4-6, 8-9 and 11-13): showed the effect of reducing tumor volume compared to the Control Group
- effect of reducing tumor volume (RTV) compared to the Control Group ([1]; Continuous Dosing Group, 100 or 150 mg/kg/day orally once daily Day 1 to Day 14): showed the effect of reducing tumor volume compared to the Control Group
- effect of reducing tumor volume, Group QOD-1 compared with Group C-1 ([1]; QOD 200 mg/kg/day vs continuous 100 mg/kg/day, total dosage 1400 mg/kg, t-test p<0.05): higher than Group C-1
- effect of reducing tumor volume, Group QOD-2 compared with Group C-2 ([1]; QOD 300 mg/kg/day vs continuous 150 mg/kg/day, total dosage 2100 mg/kg, not statistically significant): similar
- effect of reducing tumor volume (RTV) compared to the Control Group ([1]; QOD Dosing Group, 200 or 300 mg/kg/day orally Days 1, 3, 5, 7, 9, 11 and 13): showed the effect of reducing tumor volume compared to the Control Group
- effect of reducing tumor volume, Group QW-2 compared with Group C-2 ([1]; QW 1050 mg/kg/day vs continuous 150 mg/kg/day, total dosage 2100 mg/kg, not statistically significant): similar
- effect of reducing tumor volume (RTV) compared to the Control Group ([1]; QW Dosing Group, 700 or 1050 mg/kg/day orally Days 1 and 8): showed the effect of reducing tumor volume compared to the Control Group
- compound-induced caspase-3/7 activation after SLFN11 knockdown (A673 cells): suppression
- effect of SLFN11 knockdown with siRNA on the cytotoxic effect (NCI-H460 cells): SLFN11 knockdown significantly suppressed the cytotoxic effect
